pIC50: −log10 of the molar value. Active and inactive are the calls of the source. No cut-off for these calls is given here.
Columns and labels:
Mus musculus [1] = assay: Anti-inflammatory activity in BALB/c mouse model of carrageenan-induced paw edema assessed as inhibition of paw swelling at 20 mg/kg, po measured for 0.5 hrs relative to control; type: functional
[2] = molecular target: T1, Bifunctional epoxide hydrolase 2 (Mus musculus, UniProt P34914); assay: biochemical
T1 sequence (P34914 whole entry): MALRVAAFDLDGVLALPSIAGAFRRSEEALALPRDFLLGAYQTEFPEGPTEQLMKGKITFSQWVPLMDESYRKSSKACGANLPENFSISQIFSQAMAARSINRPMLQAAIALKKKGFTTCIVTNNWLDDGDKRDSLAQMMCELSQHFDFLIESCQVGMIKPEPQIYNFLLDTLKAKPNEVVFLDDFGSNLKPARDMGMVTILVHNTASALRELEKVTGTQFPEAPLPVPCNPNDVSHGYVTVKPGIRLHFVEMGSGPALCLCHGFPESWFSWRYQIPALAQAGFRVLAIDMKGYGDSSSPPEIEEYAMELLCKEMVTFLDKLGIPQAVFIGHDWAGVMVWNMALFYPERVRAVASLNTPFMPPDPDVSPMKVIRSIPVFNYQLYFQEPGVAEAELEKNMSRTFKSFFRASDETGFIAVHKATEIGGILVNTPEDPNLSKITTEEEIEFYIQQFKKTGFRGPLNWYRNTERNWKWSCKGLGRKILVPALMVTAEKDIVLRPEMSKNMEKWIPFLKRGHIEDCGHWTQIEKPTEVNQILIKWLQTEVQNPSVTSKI
Description: Inhibition of C57BL/6J mouse brain sEH using 14,15-EET as substrate preincubated for 15 mins followed by substrate addition by HPLC-MS analysis

Mus musculus [3] = assay: Anti-inflammatory activity in BALB/c mouse model of carrageenan-induced paw edema at 20 mg/kg, po measured for 0.5 to 6 hrs; type: functional, organism-based; conditions: time 0.5-6 hrs
Mus musculus [4] = assay: Anti-inflammatory activity in BALB/c mouse model of carrageenan-induced paw edema assessed as inhibition of paw swelling at 20 mg/kg, po measured for 0.5 to 6 hrs relative to control; type: functional; conditions: time 0.5-6 hrs
[5] = Cmax in brain of C57BL/6J mouse at 20 mg/kg, po measured for 24 hrs; type: ADME, organism-based
[6] = Ratio of AUC (0 to 24 hrs) in brain to plasma in C57BL/6J mouse at 20 mg/kg, po measured for 24 hrs; type: ADME, organism-based; conditions: brain and plasma, read-out: Ratio AUC
[7] = Cmax in kidney of C57BL/6J mouse at 20 mg/kg, po measured for 24 hrs; type: ADME, organism-based
[8] = Ratio of AUC (0 to 24 hrs) in liver to plasma in C57BL/6J mouse at 20 mg/kg, po measured for 24 hrs; type: ADME, organism-based; conditions: liver and plasma, read-out: Ratio AUC
Mus musculus [9] = assay: Anti-inflammatory activity in BALB/c mouse model of carrageenan-induced paw edema assessed as inhibition of paw swelling at 20 mg/kg, po measured for 2 hrs relative to control; type: functional
[10] = Cmax in liver of C57BL/6J mouse at 20 mg/kg, po measured for 24 hrs; type: ADME, organism-based
[11] = AUC (0 to 24 hrs) in brain of C57BL/6J mouse at 20 mg/kg, po measured for 24 hrs; type: ADME, organism-based
[12] = AUC (0 to 24 hrs) in kidney of C57BL/6J mouse at 20 mg/kg, po measured for 24 hrs; type: ADME, organism-based
Mus musculus [13] = assay: Anti-inflammatory activity in BALB/c mouse model of carrageenan-induced paw edema assessed as inhibition of paw swelling at 20 mg/kg, po measured for 6 hrs relative to control; type: functional
[14] = Ratio of AUC (0 to 24 hrs) in kidney to plasma in C57BL/6J mouse at 20 mg/kg, po measured for 24 hrs; type: ADME, organism-based; conditions: kidney and plasma, read-out: Ratio AUC
[15] = Ratio of Cmax in kidney to plasma in C57BL/6J mouse at 20 mg/kg, po measured for 24 hrs; type: ADME, organism-based; conditions: kidney and plasma
[16] = Ratio of Cmax in brain to plasma in C57BL/6J mouse at 20 mg/kg, po measured for 24 hrs; type: ADME, organism-based; conditions: brain and plasma
Mus musculus [17] = assay: Analgesic effect in BALB/c mouse model of acetic acid-induced writhing assessed as reduction in number of writhing episodes at 20 mg/kg, po pretreated for 1 hr followed by acetic acid treatment and measured after 5 to 35 mins relative to control; type: functional; parameters: scale not given: the % may be the effect or the level left; conditions: time 65-95 min
[18] = Cmax in plasma of C57BL/6J mouse at 20 mg/kg, po measured for 24 hrs; type: ADME, organism-based
[19] = AUC (0 to 24 hrs) in liver of C57BL/6J mouse at 20 mg/kg, po measured for 24 hrs; type: ADME, organism-based
[20] = Ratio of Cmax in liver to plasma in C57BL/6J mouse at 20 mg/kg, po measured for 24 hrs; type: ADME, organism-based; conditions: liver and plasma
[21] = AUC (0 to 24 hrs) in plasma of C57BL/6J mouse at 20 mg/kg, po measured for 24 hrs; type: ADME, organism-based

Row | Compound | pIC50 [2] | other results
1 | CS(=O)(=O)c1ccc(CC(=O)N2CCC(NC(=O)NCc3ccc(OC(F)(F)F)cc3)CC2)cc1 | 8.42 | Imax (Mus musculus [1]): 35.9%
2 | CN(C)C(=O)N1CCC(NC(=O)Cc2ccc3c(c2)OCO3)CC1 | 5.19 | –
3 | COc1cccc(CC(=O)N2CCC(NC(=O)NCc3ccc(OC(F)(F)F)cc3)CC2)c1 | 9.27 | Activity (Mus musculus [3]): Active
4 | COc1ccc(CC(=O)N2CCC(NC(=O)NCC(C)C)CC2)cc1OC | 7.70 | –
5 | CC(C)CNC(=O)NCCC/C=C/c1ccc2c(c1)OCO2 | 7.95 | –
6 | CCC(=O)N1CCC(CNC(=O)NC2CCN(C(=O)Cc3ccc4c(c3)OCO4)CC2)CC1 | 8.02 | –
7 | COc1cc(CCC(=O)N2CCC(NC(=O)NCc3ccc(OC(F)(F)F)cc3)CC2)cc(OC)c1 | 9.14 | Imax (Mus musculus [1]): 28.3%; Activity (Mus musculus [3]): Active
8 | CC(C)CNC(=O)N1CCC(NC(=O)Cc2ccc3c(c2)OCO3)CC1 | 5.46 | –
9 | CCC(=O)N1CCC(NC(=O)NC2CCN(C(=O)Cc3cc(OC)cc(OC)c3)CC2)CC1 | 6.79 | –
10 | CCC(=O)N1CCC(CNC(=O)NC2CCN(C(=O)Cc3ccc(OC(F)(F)F)cc3)CC2)CC1 | 8.00 | –
11 | CCC(=O)N1CCC(CNC(=O)Nc2ccc3c(c2)CNC(c2cc(OC)cc(OC)c2)C3)CC1 (stereo not drawn) | 7.40 | –
12 | CC(C)CNC(=O)NCCCCCNC(=O)Cc1ccc2c(c1)OCO2 | 6.58 | –
13 | CC(C)CNC(=O)NC1CCN(CCc2ccc3c(c2)OCO3)CC1 | 5.88 | –
14 | CC(C)CNC(=O)NCCNC(=O)Cc1ccc2c(c1)OCO2 | 5.37 | –
15 | COc1cc(OC)cc(-c2cc3ccc(NC(=O)NCc4ccc(OC(F)(F)F)cc4)cc3cn2)c1 | 8.71 | Imax (Mus musculus [4]): 12.7%
16 | CCC(=O)N1CCC(CNC(=O)Nc2ccc3cc(-c4cc(OC)cc(OC)c4)ncc3c2)CC1 | 8.28 | –
17 | CC(C)C(=O)NCCC/C=C/c1ccc2c(c1)OCO2 | 5.31 | –
18 | O=C(NCc1ccc(OC(F)(F)F)cc1)NC1CCN(C(=O)Cc2ccc(OC(F)(F)F)cc2)CC1 | 8.65 | –
19 | CC(C)CNC(=O)NCC1CCN(C(=O)Cc2ccc3c(c2)OCO3)CC1 | 6.68 | –
20 | CN(C)C(=O)NC1CCN(C(=O)Cc2ccc3c(c2)OCO3)CC1 | 4.19 | –
21 | CCC(=O)N1CCC(CNC(=O)NC2CCN(C(=O)Cc3cc(OC)cc(OC)c3)CC2)CC1 | 7.97 | Cmax [5]: 44.9 ng/g; Kp at 24 h [6]: 0.53; Cmax [7]: 4010 ng/g; Kp at 24 h [8]: 237; inhibition in vivo at 20 mg/kg (Mus musculus [9]): 50.8%; inhibition in vivo at 20 mg/kg (Mus musculus [1]; Mus musculus, BALB/c): 38.6%; Cmax [10]: 5940 ng/g; AUC(0-t) at 24 h [11]: 173 ng·h/mL; AUC(0-t) at 24 h [12]: 43400 ng·h/mL; inhibition in vivo at 20 mg/kg (Mus musculus [13]): 37.6%; Kp at 24 h [14]: 135; Kp at 24 h [15]: 52.3; Kp at 24 h [16]: 0.59; Activity (Mus musculus [17]): 60%; Cmax [18]: 76.7 ng/mL; AUC(0-t) at 24 h [19]: 76700 ng·h/mL; Kp at 24 h [20]: 77.5; AUC(0-t) at 24 h [21]: 323 ng·h/mL
22 | CC(C)CNC(=O)NCCCCNC(=O)Cc1ccc2c(c1)OCO2 | 8.73 | –
23 | CCC(=O)N1CCC(CNC(=O)NC2CCN(C(=O)Cc3cccc(OC(F)(F)F)c3)CC2)CC1 | 7.73 | –

Row | Compound | pIC50 [2] | other results
24 | COc1cc(CC(=O)N2CCC(NC(=O)NCc3ccc(C#N)cc3)CC2)cc(OC)c1 | 7.84 | –
25 | COc1cc(OC)cc(C2Cc3ccc(NC(=O)NCc4ccc(OC(F)(F)F)cc4)cc3CN2)c1 (stereo not drawn) | 8.36 | –
26 | CC(C)CNC(=O)NCCCNC(=O)Cc1ccc2c(c1)OCO2 | 5.35 | –
27 | CCC(=O)N1CCC(NC(=O)Nc2ccc(OC(F)(F)F)cc2)CC1 | – | inhibition in vivo at 20 mg/kg (Mus musculus [4]; Mus musculus, BALB/c): 28.8%
28 | COc1cc(CC(=O)N2CCC(NC(=O)Nc3ccc(OC(F)(F)F)cc3)CC2)cc(OC)c1 | 7.81 | –
29 | O=C(Cc1ccccn1)Nc1cccc(CC(=O)N2CCC(NC(=O)NCC3CCOCC3)CC2)c1 | 7.26 | –
30 | CC(C)CNC(=O)NC1CCN(C(=O)Cc2ccc3c(c2)OCO3)CC1 | 7.60 | –
31 | COc1cc(OC)cc(C(=O)N2CCC(NC(=O)NCc3ccc(OC(F)(F)F)cc3)CC2)c1 | 8.65 | –
32 | O=C(Cc1ccccn1)Nc1cccc(CC(=O)N2CCC(NC(=O)NCc3ccc(OC(F)(F)F)cc3)CC2)c1 | 8.51 | –
33 | CN(C)C(=O)NCCC/C=C/c1ccc2c(c1)OCO2 | 6.59 | –
34 | CC(C)CNC(=O)NCCCC#Cc1ccc2c(c1)OCO2 | 7.66 | –
35 | CN(C)C(=O)NCCCC/C=C/c1ccc2c(c1)OCO2 | 5.19 | –
36 | CCC(=O)N1CCC(CNC(=O)NC2CCN(C(=O)Cc3cccc(OC)c3)CC2)CC1 | 8.21 | –
37 | O=C(NCc1ccc(OC(F)(F)F)cc1)NC1CCN(C(=O)Cc2cccc(OC(F)(F)F)c2)CC1 | 9.04 | Imax (Mus musculus [1]): 39.7%; Activity (Mus musculus [3]): Active
38 | O=C(Cc1ccc2c(c1)OCO2)NCCCCNC(=O)NCC1CCOCC1 | 5.90 | –
39 | COc1cc(CC(=O)N2CCC(NC(=O)NCCN(C)C)CC2)cc(OC)c1 | 4.80 | –
40 | O=C(NCc1ccc(OC(F)(F)F)cc1)NC1CCN(C(=O)Cc2ccc3c(c2)OCO3)CC1 | 9.07 | Imax (Mus musculus [1]): 36.3%; Activity (Mus musculus [3]): Active
41 | COc1cc(CC(=O)N2CCC(NC(=O)NCC(C)C)CC2)cc(OC)c1 | 7.96 | –
42 | CCC(=O)N1CCC(CNc2c(NC3CCN(C(=O)Cc4cc(OC)cc(OC)c4)CC3)c(=O)c2=O)CC1 | 3.78 | –
43 | COc1ccc(CC(=O)N2CCC(NC(=O)NCc3ccc(OC(F)(F)F)cc3)CC2)cc1OC | 8.37 | –
44 | CCC(=O)N1CCC(CNC(=O)NC2CCN(C(=O)Cc3cccc(NC(=O)Cc4ccccn4)c3)CC2)CC1 | 7.69 | –
45 | CCC(=O)NCCCCNC(=O)NC1CCN(C(=O)Cc2cc(OC)cc(OC)c2)CC1 | 5.79 | –
46 | COc1cc(CC(=O)N2CCC(NC(=O)NCC3CCOCC3)CC2)cc(OC)c1 | 7.73 | –
